Reference: patent US20110263642A1, “METHODS FOR TREATMENT OF MULTIPLE SCLEROSIS” (FibroGen, Inc., priority 2008, published 2011)
Where two headings read alike, the source gives them in different places.

Columns and labels:
[1] = test system: Oligodendrocytes (MO3.13 cells); experiment: Ceramide-induced cell death of oligodendrocytes, Calcein AM viability; format: cell-based; settings: compound 20 μM, non-ceramide control = 100
From the text: (See e.g., Craighead et al. (2000) Neurosci Lett. 278:125-8; Jana et al. (2007) J Neuroimmune Pharmacol. 2:184-93; Jana et al. (2009) J Neurol Sci. 278:5-15; Singh et al. (1998) J Biol. Chem. 273:20354-62.) In this model, addition of ceramide to cultured oligodendrocytes results in oxidative stress-induced cell death (i.e. apoptosis). The effect of compounds and methods of the present invention on the ability to improve oligodendrocyte viability following ceramide challenge was examined as follows. Oligodendrocytes (MO3.13 cells; Cedarlane Laboratories, Burlington, N.C.) were plated in 96-well culture dishes at a density of 4000 cells per well and cultured at 37° C., 10% CO2 in DMEM containing L-glutamine, sodium pyruvate, and 25 mM glucose (Mediatech Inc., Manassas, Va.) and supplemented with 10% FBS (Invitrogen Corporation, Carlsbad, Calif.). The next day, the plating media was removed and replaced with DMEM containing L-glutamine (Invitrogen Corporation, Carlsbad, Calif.) and supplemented with 5.5 mM glucose. Cells were then treated with vehicle (0.015% DMSO) or ceramide (Sigma-Aldrich, St. Louis, Mo.) plus vehicle (0.05% DMSO) or a compound of the invention (20 μM).
For cells treated longer than 3 days, half the media was removed after the third day of treatment and replaced with an equal volume of fresh treatment media containing vehicle (0.015% DMSO) or ceramide plus vehicle (0.05% DMSO) or a compound of the invention.
Cell viability was assessed 3, 4, and 5 days after treatment using the following protocol. Treatment media was removed from the cells and 100 ul of 1.67 uM Calcein AM reagent (Invitrogen Corporation, Carlsbad, Calif.) prepared in DMEM containing L-glutamine (Invitrogen Corporation, Carlsbad, Calif.) and supplemented with 5.5 mM glucose was added to each well. Cells were returned to 37° C. in a 10% CO2 incubator for approximately 30 minutes before assessing fluorescence (Ex 485 nm/Em 538 nm) using a microplate reader (Molecular Devices, Sunnyvale, Calif.). Images were taken of representative wells using a fluorescent microscope equipped with a camera (Nikon, Melville, N.Y.) and imaging software (Nikon, Melville, N.Y.).

[2] = test system: EAE animal model of chronic progressive multiple sclerosis; experiment: Chronic progressive EAE induced by MOG35-55 and pertussis toxin in mice, neurological scoring to day 35; format: in vivo, C57BL/6 mice
From the text: A chronic progressive model of EAE is an accepted animal model of human chronic progressive multiple sclerosis (MS). In this model, induction of chronic progressive EAE occurs following injections of myelin oligodendrocyte glycoprotein (MOG). Approximately 8 to 14 days after injection of MOG, animals develop chronic progressive paralysis similar to that observed in humans with chronic progressive MS.
Female C57BL/6 mice (8-10 weeks old) were used in this study (Taconic Farm, CA). Compounds of the present invention were formulated in 0.5% carboxymethyl cellulose (CMC) with 0.1% Polysorbate 80 to achieve a final concentration of either 1.2 mg/ml or 4.0 mg/ml. FTY-720 was also formulated in 0.5% carboxymethyl cellulose (CMC) with 0.1% Polysorbate 80 to achieve a final concentration of 2.0 mg/ml.
Induction of chronic progressive EAE by injection with myelin oligodendrocyte glycoprotein (MOG) was performed as follows. Mice were injected subcutaneously with 200 μg of myelin oligodendrocyte glycoprotein (MOG35-55) peptide emulsion in both sides of their pectoral regions (50 μl each side). At 8 hours and 48 hr after immunization with MOG, animals were injected intraperitoneally with 400 ng of pertussis toxin (PT) in 100 μl of saline. Control mice received both injections with an equivalent volume of saline without MOG or PT.
[…] FTY-720 (10 mg/kg) was used in this study as a positive control and was administered daily from day 0 to day 35.
Neurological scoring was performed daily from day 7 to day 35 following MOG injection. Grading of disease severity (i.e., disease score) was based on the following observations performed by two different observers: 0=no abnormality; 1=distal weakness of the tail (limp tail); 2=limp tail and weakness of hind legs (mild paraparesis); 3=limp tail and complete paralysis of hind legs or paralysis in one of one front leg and one hind leg (moderate paraparesis); 4=limp tail, complete hind leg and partial front leg paralysis (moderate quadraparesis); 5=complete hind and front leg paralysis (moribund). Analysis of variance (ANOVA) was performed on data from the measured (neurological score) parameters. p value≦0.05 were considered significant.

[3] = 72 h, ceramide 2.25 μM, read-out: % Viable at Day 3
[4] = 72 h, ceramide 2.75 μM, read-out: % Viable at Day 3
[5] = 96 h, ceramide 2.25 μM, read-out: % Viable at Day 4
[6] = 96 h, ceramide 2.75 μM, read-out: % Viable at Day 4
[7] = 120 h, ceramide 2.25 μM, read-out: % Viable at Day 5
[8] = 120 h, ceramide 2.75 μM, read-out: % Viable at Day 5

SMILES | viability at 20 µM [1, 3] | viability at 20 µM [1, 4] | viability at 20 µM [1, 5] | viability at 20 µM [1, 6] | viability at 20 µM [1, 7] | viability at 20 µM [1, 8] | development of EAE disease (positive control) ([2]; 10 mg/kg daily, day 0 to day 35) | No. of Animals Showing No Disease Activity ([2]; through day 35, FTY-720 (Table 3: 10 mg/kg/d, daily))
O=C(O)CNC(=O)c1ncc2cc(Oc3ccccc3)ccc2c1O [Compound F, [(4-Hydroxy-7-phenoxy-isoquinoline-3-carbonyl)-amino]-acetic acid] | 85% | 72% | 66% | 53% | 62% | 51% | – | –
COc1cc(F)cc(Oc2ccc3c(O)c(C(=O)NCC(=O)O)ncc3c2)c1 [Compound D, {[7-(3-Fluoro-5-methoxy-phenoxy)-4-hydroxy-isoquinoline-3-carbonyl]-amino}-acetic acid] | – | 79% | – | 74% | – | 61% | – | –
Cc1ccc(Oc2cccc3c(O)c(C(=O)NCC(=O)O)nc(-c4cccnc4)c23)cc1 [Compound C, [(4-Hydroxy-1-pyridin-3-yl-8-p-tolyloxy-isoquinoline-3-carbonyl)-amino]-acetic acid] | 61% | – | 51% | – | 16% | – | – | –
O=C(O)CNC(=O)c1c(O)c2cc(Cl)cn2n(Cc2ccc(Cl)cc2)c1=O [Compound I, {[6-Chloro-1-(4-chloro-benzyl)-4-hydroxy-2-oxo-1,2-dihydro-pyrrolo[1,2-b]pyridazine-3-carbonyl]-amino}-acetic acid] | – | 76% | – | 66% | – | 64% | – | –
COc1ccc(-c2ccc3c(O)c(C(=O)NCC(=O)O)c(=O)sc3c2)cc1 [Compound L, {[4-Hydroxy-7-(4-methoxy-phenyl)-2-oxo-2H-thiochromene-3-carbonyl]-amino}-acetic acid] | – | 75% | – | 59% | – | 64% | – | –
O=C(O)CNC(=O)c1c(O)c2cccn2n(Cc2ccc(C(F)(F)F)cc2)c1=O [Compound G, {[4-Hydroxy-2-oxo-1-(4-trifluoromethyl-benzyl)-1,2-dihydro-pyrrolo[1,2-b]pyridazine-3-carbonyl]-amino}-acetic acid] | 94% | – | 86% | – | 80% | – | – | –
N#Cc1nc(C(=O)NCC(=O)O)c(O)c2ccn(Cc3ccccc3F)c12 [Compound O, {[7-Cyano-1-(2-fluoro-benzyl)-4-hydroxy-1H-pyrrolo[2,3-c]pyridine-5-carbonyl]-amino}-acetic acid] | – | 74% | – | 53% | – | 52% | – | –
C[C@H](NC(=O)c1c(O)c2cc(Cl)cn2n(Cc2ccc(C(F)(F)F)cc2)c1=O)C(=O)O [Compound H, (S)-2-{[6-Chloro-4-hydroxy-2-oxo-1-(4-trifluoromethyl-benzyl)-1,2-dihydro-pyrrolo[1,2-b]pyridazine-3-carbonyl]-amino}-propionic acid] | – | 73% | – | 74% | – | 77% | – | –
CCCCOc1ccc2c(O)c(C(=O)NCC(=O)O)c(=O)sc2c1 [Compound M, [(7-Butoxy-4-hydroxy-2-oxo-2H-thiochromene-3-carbonyl)-amino]-acetic acid] | – | 74% | – | 57% | – | 59% | – | –
O=C(O)CNC(=O)c1c(O)c2ccc(-c3ccc(Oc4ccccc4)cc3)cc2oc1=O [Compound J, {[4-Hydroxy-2-oxo-7-(4-phenoxy-phenyl)-2H-chromene-3-carbonyl]-amino}-acetic acid] | – | 70% | – | 36% | – | 22% | – | –
Cc1ccc(Oc2cccc3c(C#N)nc(C(=O)NCC(=O)O)c(O)c23)cc1 [Compound B, [(1-Cyano-4-hydroxy-5-p-tolyloxy-isoquinoline-3-carbonyl)-amino]-acetic acid] | 76% | – | 54% | – | 16% | – | – | –
CCCCCCOc1ccc2oc(=O)c(C(=O)NCC(=O)O)c(O)c2c1 [Compound K, [(6-Hexyloxy-4-hydroxy-2-oxo-2H-chromene-3-carbonyl)-amino]-acetic acid] | – | 72% | – | 43% | – | 56% | – | –
COc1ccc(Cn2c(Cl)c(Cl)c3c(O)c(C(=O)NCC(=O)O)nc(C#N)c32)cc1 [Compound Q, {[2,3-Dichloro-7-cyano-4-hydroxy-1-(4-methoxy-benzyl)-1H-pyrrolo[2,3-c]pyridine-5-carbonyl]-amino}-acetic acid] | – | 70% | – | 59% | – | 50% | – | –
CCCCCCCCc1ccc(CCC(N)(CO)CO)cc1 [FTY-720, reference compound] | – | – | – | – | – | – | prevented the development of EAE disease | 7/7
CC1(C)C(=O)C(C(=O)NCC(=O)O)=C(O)c2cc(Cl)ccc21 [Compound N, [(7-Chloro-1-hydroxy-4,4-dimethyl-3-oxo-3,4-dihydro-naphthalene-2-carbonyl)-amino]-acetic acid] | – | 82% | – | 67% | – | 67% | – | –
N#Cc1nc(C(=O)NCC(=O)O)c(O)c2ccn(Cc3ccc(-c4ccccc4)cc3)c12 [Compound P, [(1-Biphenyl-4-ylmethyl-7-cyano-4-hydroxy-1H-pyrrolo[2,3-c]pyridine-5-carbonyl)-amino]-acetic acid] | 79% | – | 80% | – | 77% | – | – | –
COc1cccc(Oc2cccc3c(O)c(C(=O)NCC(=O)O)ncc23)c1 [Compound E, {[4-Hydroxy-8-(3-methoxy-phenoxy)-isoquinoline-3-carbonyl]-amino}-acetic acid] | – | 84% | – | 74% | – | 71% | – | –
